Reference: US11707442B2, “Antibacterial and antifungal compounds” (The General Hospital Corporation, priority 2015, dated 2023)
Converted amounts (≈) assume the structure as drawn. “Also recorded” adds a separate entry of the source. Where two headings read alike, the source gives them in different places.

Key:
[1] = system: S. aureus; test: Disc clearing assay; format: cell-based, Staphylococcus aureus; details: result in words
Experimental: (§1) Disc clearing assay: The disc diffusion test was performed on Mueller Hinton (MH) agar plates for bacterial cultures and yeast extract, peptone, dextrose (YPD) for fungal cultures. The assay was repeated 3 times. Discs were soaked in 10 μl of either DMSO or 10 mg/ml compound stock solution and air-dried. Three hundred microliters of an overnight culture of bacteria or fungi were spread on plates. After completely drying the agar plate in a laminar flow hood, DMSO or compound impregnated discs were overlaid on the plate and incubated at 35° C. for 18 hrs.
The disc diffusion test was carried out in triplicate on cation-adjusted Miller-Hinton agar. 6 mm discs were impregnated with 50 μg of compounds and air-dried. Three hundred microliters of an overnight S. aureus MW2 culture was spread on an agar plate and air-dried. The antimicrobial discs were overlaid on the plate and incubated at 37° C. for 20 hrs.

[2] = system: E. faecium; test: Disc clearing assay; format: cell-based, Enterococcus faecium; details: result in words
Experimental: as §1

[3] = system: C. glabrata; test: Disc clearing assay; format: cell-based, Candida glabrata; details: result in words
Experimental: as §1

[4] = system: A. baumannii; test: Disc clearing assay; format: cell-based, Acinetobacter baumannii; details: result in words
Experimental: as §1

[5] = system: B. subtilis; test: Disc clearing assay; format: cell-based, Bacillus subtilis; details: result in words
Experimental: as §1

[6] = Checkerboard assay of auranofin with amphotericin B and fluconazole; format: cell-based; details: result in words
Experimental: (§2) Checkerboard assay (e.g., antibiotic synergy test): The antimicrobial or antifungal activity of a combination of a compound of present application with other agents was determined through a checkerboard assay. The checkerboard method for determining synergy of synthetic retinoids with conventional antibiotics can be conducted, for example, as previously described (See, e.g., Rajamuthiah, R. et al. A defensin from the model beetle Tribolium castaneum acts synergistically with telavancin and daptomycin against multidrug resistant Staphylococcus aureus. PLoS ONE 10, e0128576 (2015)) The compounds whose combinations were being tested were arrayed in serial concentrations, vertically for one compound and horizontally for the other compound in the same 96 well microplate. 2-fold serial dilutions of each retinoid were combined with 2-fold serial dilutions of each conventional antibiotic, which created an 8×8 matrix in a 96-well microtiter plate. The rest of the procedure involving addition of pathogen and measurement of growth was carried out as described for measurement of MIC.
(§3) The Fractional Inhibitory Concentration (FIC) index for two compounds, A and B, is defined by the following equation: FIC=((A/MIC^A)+(B/MIC^B)). MIC^A and NIC^B are MICs of compound A or B respectively. […]

[7] = system: S. aureus, E. faecium, and A. baumannii; test: Static versus cidal assessment (MBC); format: cell-based; details: result in words
Experimental: Static versus cidal assessment: The minimum bactericidal concentration (MBC) was determined as follows: 10 μl of bacterial culture from each micro-well of the MIC assay was plated on MH agar and incubated at 35° C. overnight. The lowest compound concentration at which there was no bacterial colony growth was considered the MBC.

[8] = system: C. neoformans; test: Disc clearing assay; format: cell-based, Cryptococcus neoformans; details: impregnated filter; result in words
Experimental: as §1

[9] = system: C. tropicalis; test: Disc clearing assay; format: cell-based, Candida tropicalis; details: result in words
Experimental: as §1

[10] = system: C. albicans; test: Static versus cidal assessment (MFC); format: cell-based, Candida albicans; details: result in words
Experimental: The minimum fungicidal concentration was (MFC) was determined as follows: 10 μl of yeast culture from each micro-well of the MIC assay was plated on YPD agar and incubated at 35° C. overnight. The lowest compound concentration at which there was no fungal colony growth was considered the MFC.

[11] = system: MRSA strain MW2; test: Checkerboard assay (combination); format: cell-based, Staphylococcus aureus; details: result in words
Experimental: as §2
The Fractional Inhibitory Concentration (FIC) index for two compounds, A and B, is defined by the following equation: FIC=((A/MIC^A)+(B/MIC^B)). MIC^A and NIC^B are MICs of compound A or B respectively. (A) is the lowest concentration of compound A in combination with compound B that inhibits growth of a pathogen and (B) is the lowest concentration of compound B that inhibits growth of a pathogen.
Optical densities at 600 nm were measured after 18 h of incubation at 37° C. The results represent three independent experiments.

[12] = system: C. parapsilosis; test: Disc clearing assay; format: cell-based, Candida parapsilosis; details: result in words
Experimental: as §1

[13] = system: C. albicans biofilm; test: Biofilm growth on silicone pads; format: cell-based, Candida albicans; details: result in words
Experimental: C. albicans were grown in YPD medium overnight at 30° C., diluted to an OD600 of 0.5 in 2 mL Spider medium, and added to a well of a sterile 12-well plate containing a silicone pad measuring 1.5×1.5 cm that had been pretreated overnight with bovine serum (Sigma-Aldrich). The inoculated 12-well plate was incubated with gentle agitation (150 rpm) for 90 min at 37° C. for adhesion to occur. The samples were washed with 2 ml PBS, and after the 90-min incubation, and PBS wash, auranofin was added to fresh media at 4 μg/ml (n=4), 8 μg/ml (n=4), 16 μg/ml (n=4), and 32 μg/ml (n=4).
Control groups were included that contained C. albicans alone in Spider medium without auranofin (n=4) and a negative control group of Spider medium without any fungal cells (n=4).
The silicone pads with biofilm were removed from the wells, dried overnight, and weighed the following day. The total biomass (mg) of each biofilm was calculated by subtracting the weight of the platform material prior to biofilm growth from the weight after the drying period and adjusting for the weight of a control pad exposed to no cells.
Statistical significance among the different groups was determined by the analysis of variance (ANOVA) and the Tukey test using the Graph Pad Prism Program.

[14] = system: E. faecalis; test: Disc clearing assay; format: cell-based, Enterococcus faecalis; details: result in words
Experimental: as §1

[15] = system: C. neoformans; test: Checkerboard assay with oxidizing agents; format: cell-based, Cryptococcus neoformans; details: result in words
Experimental: as §2, §3

[16] = system: E. faecium; test: Checkerboard assay with glutathione; format: cell-based, Enterococcus faecium; details: result in words
Experimental: as §2, §3

[17] = system: E. spp.; test: Disc clearing assay; format: cell-based, Enterobacter sp.; details: result in words
Experimental: as §1

[18] = system: K. pneumoniae; test: Disc clearing assay; format: cell-based, Klebsiella pneumoniae; details: result in words
Experimental: as §1

[19] = system: S. aureus; test: Minimal inhibitory concentration (MIC), broth microdilution; format: cell-based, Staphylococcus aureus; details: for MIC: Staphylococcus aureus, read-out: MIC
Outline: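 MIC values against methicillin-resistant Staphylococcus aureus were determined by standard broth microdilution following Clinical and Laboratory Standards Institute guidance (CLSI document M07-A8). Each well held 100 μl of test compound plus bacterial cells in MH broth, with the starting OD600 set to 0.03. Plates were incubated 18 hrs at 35° C. and absorbance was then read at 595 nm.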

[20] = system: human erythrocytes; test: Human blood hemolysis; format: cell-based; details: increasing concentrations; result in words
Experimental: Human blood hemolysis. Hemolytic activity of retinoids on human erythrocytes was evaluated using a previously described method with modifications (Rajamuthiah, R. et al. A defensin from the model beetle Tribolium castaneum acts synergistically with telavancin and daptomycin against multidrug resistant Staphylococcus aureus. PLoS ONE 10, e0128576 (2015)). 10% human erythrocytes were purchased from Rockland Immunochemicals (Limerick, Pa., USA). The erythrocytes were diluted to 4% with PBS, and 100 μl was added to 100 μl of two-fold serial dilutions of compounds in PBS, 0.2% DMSO (negative control), or 2% Triton-X 100 (positive control) in a 96-well plate. The 96-well plate was incubated at 37° C. for 1 h and then centrifuged at 500×g for 5 min. 100 μl of the supernatant was transferred to a fresh 96-well plate, and absorbance of supernatants was measured at 540 nm. Percent hemolysis was calculated using the following equation: (A540 nm of compound treated sample—A540nm of 0.1% DMSO treated sample)/(A540 nm of 1% Triton X-100 treated sample—A540nm of 0.1% DMSO treated sample)×100. HC50 (concentration of a compound causing 50% hemolysis) was determined using SigmaPlot 10.0 (Systat Software Inc., San Jose, Calif., USA).
In a 96 well plate, 50 μl of 2% human erythrocytes suspended in PBS was added to 50 μl of compounds serially diluted in PBS and incubated at 37° C. for 1 hour. The plate was then centrifuged at 500 G for 5 minutes and 50 μl of the supernatant from each well of the assay plate was transferred to a fresh 96 well plate. Hemolysis was confirmed by both visual observation and measuring absorbance at 540 nm. Treatment was conducted in triplicate.
2% human erythrocytes were treated with two-fold serially diluted concentration of the retinoids for 1 h at 37° C. A sample treated with 1% Triton-X 100 was used as the control for 100% hemolysis. Results are shown as means±s.d.; n=3.

[21] = system: P aeruginosa; test: Disc clearing assay; format: cell-based, Pseudomonas aeruginosa; details: result in words
Experimental: as §1

[22] = system: HepG2 cells; test: Toxicity assay with HepG2 liver cells (WST-1); format: cell-based; details: 24 hours; result in words
Experimental: HepG2 cells were cultured in Dulbecco's modified Eagle medium (DMEM) containing 10% fetal bovine serum, 25 mM D-glucose, 2 mM L-glutamine, 1 mM sodium pyruvate and 1% penicillin/streptomycin and maintained at 37° C. in 5% CO2. For the toxicity test, HepG2 were cultured at 70-80% confluence in 96-well plates in a volume of 100 μl/well culture medium. Serially diluted chemical compounds were incubated with the cells at 37° C. in 5% CO2 for 24 hours. Ten microliters of 4-(3-(4-iodophenyl)-2-(4-nitrophenyl)-2H-5-tetrazolio)-1,3-benzene disulfonate (WST-1) solution were added per well for the last 4 hours of the 24 hours period. WST-1 reduction was detected using absorbance at 490 nm by a Vmax microplate reader. The percent […] relative to that of the no-treatment control was calculated. The assay was done in triplicate.

## CC[P](CC)(CC)=[Au][S][C@@H]1O[C@H](COC(C)=O)[C@@H](OC(C)=O)[C@H](OC(C)=O)[C@H]1OC(C)=O [Auranofin, 2,3,4,6-tetra-o-acetyl-1-thio-D-glucanpyranosato-S-(triethyl-phosphine)-gold]
[1]
  zone of inhibition, S. aureus: zone of inhibition
[2]
  zone of inhibition, E. faecium: zone of inhibition
[3]
  zones of inhibition, C. glabrata: zones of inhibition
[4]
  zone of inhibition, A. baumannii: zone of inhibition
[5]
  zone of inhibition, B. subtilis: clearing; also recorded: zone of inhibition
[6]
  interaction with amphotericin B and fluconazole: additive effects but not synergism
[7]
  static versus cidal nature of the inhibition: bacteriostatic at the MIC concentration but bactericidal at higher concentrations
[8]
  clearing of C. neoformans: clearing
[9]
  zones of inhibition, C. tropicalis: zones of inhibition
[10]
  static versus cidal activity against C. albicans: fungistatic
[11]; S. aureus
  interaction with hydrogen peroxide: did not provide any synergistic activity
[12]
  zones of inhibition, C. parapsilosis: zones of inhibition
[13]
  C. albicans biofilm formation: not significantly reduced
[14]
  zone of inhibition, E. faecalis: clearing; also recorded: zone of inhibition
[15]
  MIC change in the presence of menadione: no change in MIC
  interaction with diamide and hydrogen peroxide: additive effect

## N[C@@H](CCC(=O)N[C@@H](CS)C(=O)NCC(=O)O)C(=O)O [Glutathione]
[16]
  inhibition of E. faecium by the agent alone: did not inhibit
[11]
  inhibition of S. aureus by the agent alone: did not inhibit

## CC1COc2c(N3CCN(C)CC3)c(F)cc3c(=O)c(C(=O)OCc4ccccn4)cn1c23 (stereo not shown) [Z3060, pyridin-2-ylmethyl 9-fluoro-3-methyl-10-(4-methylpiperazin-1-yl)-7-oxo-3,7-dihydro-2H-[1,4]oxazino[2,3,4-ij]quinoline-6-carboxylate]
[17]
  zone of inhibition, E. spp.: zone of inhibition
[18]
  zone of inhibition, K. pneumoniae: zone of inhibition
[19]; S. aureus (reference strain)
  MIC: 2 mg/L (≈ 4.42 µM)
[19]; clinical isolates of S. aureus (Z3060)
  MIC: 1 to 2 mg/L (≈ 2.21 to 4.42 µM)
[19]; clinical isolates known to be drug resistant, result in words
  MIC change: increased
[2]
  zone of inhibition, E. faecium: zone of inhibition
[4]
  zone of inhibition, A. baumannii: zone of inhibition
[20]
  toxicity (hemolysis) to erythrocytes: did not exhibit lysis
[21]
  zone of inhibition, P aeruginosa: zone of inhibition
[22]
  HepG2 cell viability: cell viability are maintained
